Values of other authors in patent publication US5543414A, “Achiral amino acid acyl esters of ganciclovir and its derivatives” (priority 1994, dated 1996).
Structures can show the parent of a compound that is named as a salt. Where two headings read alike, the source gives them in different places.

Assays:
[1] = oral administration
[2] = system: viruses of the herpes family; conditions: e.g. herpes simplex, cytomegalovirus
[3] = system: herpes simplex virus type 1 and type 2 strains; conditions: primary rabbit kidney cell cultures
[4] = not given; remark: listed apart in the source
[5] = in vivo
[6] = system: epithelial and stromal herpes simplex keratitis and associated iritis; conditions: glycine ester: 1% eye drop formulation, rabbits; acyclovir: ointment
[7] = not given; remark: listed apart in the source
[8] = not given; remark: listed apart in the source
[9] = not given; remark: listed apart in the source

CCC(=O)OCC(COC(=O)CC)OCn1cnc2c(=O)[nH]c(N)nc21 [dipropionate ester]
more bioavailable than ganciclovir itself [1]: about 42%

Nc1nc2c(ncn2COC(CO)CO)c(=O)[nH]1 [ganciclovir, 9-[(2-hydroxy-1-hydroxymethyl-ethoxy)methyl]-guanine]
antiviral activity [2]: highly efficacious against viruses of the herpes family, for example, against herpes simplex and cytomegalovirus

CC(N)C(=O)OCCOCn1cnc2c(=O)[nH]c(N)nc21 (centres unmarked) [hydrochloride salt of the alanyl ester]
activity against herpes simplex virus type 1 and type 2 compared with acyclovir [3]: almost as active as acyclovir itself

CC[C@H](C)[C@H](N)C(=O)OCCOCn1cnc2c(=O)[nH]c(N)nc21 [L-isoleucyl]
amounts of the parent drug in the urine compared with acyclovir (rat, in vivo): greater amounts of the parent drug in the urine than acyclovir itself

Nc1ncc2ncn(COCCO)c2n1 [6-deoxy-acyclovir]
absorption and plasma levels of the parent drugs ([4]; oral administration, rats): efficient absorption from the gastro-intestinal tract and high plasma levels of the parent drugs | conversion to parent drug [5]: readily converted in vivo by the action of enzymes

Nc1nc2c(ncn2COCCO)c(=O)[nH]1 [acyclovir, 2-(2-amino-1,6-dihydro-6-oxo-1,6-dihydro-purin-9-yl)methoxy-ethanol]
efficacy in topical treatment of herpes simplex keratitis and iritis [6]: hardly effective in stromal disease or iritis | antiviral activity [2]: good activity against herpes viruses such as herpes simplex | water solubility [7]: limited solubility in water | urinary recovery of acyclovir (rat, in vivo, po): 19%

C[C@H](N)C(=O)OCCOCn1cnc2c(=O)[nH]c(N)nc21 [L-alanyl]
amounts of the parent drug in the urine compared with acyclovir (rat, in vivo): greater amounts of the parent drug in the urine than acyclovir itself

CSCC[C@H](N)C(=O)OCCOCn1cnc2c(=O)[nH]c(N)nc21 [L-methionyl]
amounts of the parent drug in the urine compared with acyclovir (rat, in vivo): greater amounts of the parent drug in the urine than acyclovir itself

NCC(=O)OCCOCn1cnc2c(=O)[nH]c(N)nc21 [hydrochloride salt of the glycyl ester]
activity against herpes simplex virus type 1 and type 2 compared with acyclovir [3]: almost as active as acyclovir itself

NCC(=O)OCCOCn1cnc2c(=O)[nH]c(N)nc21 [glycyl ester of acyclovir]
solubility greater than the solubility of acyclovir itself [8]: about 30 fold | efficacy in topical treatment of herpes simplex keratitis and iritis [6]: efficacious in the topical treatment of epithelial and stromal herpes simplex keratitis and associated iritis | amounts of the parent drug in the urine compared with acyclovir (rats): greater amounts of the parent drug in the urine than acyclovir itself

Nc1nc2c(ncn2COCCOC(=O)CCC(=O)O)c(=O)[nH]1 [sodium salt of the succinyl ester]
activity against herpes simplex virus type 1 and type 2 compared with acyclovir [3]: almost as active as acyclovir itself

CC[C@H](N)C(=O)OCCOCn1cnc2c(=O)[nH]c(N)nc21
amounts of the parent drug in the urine compared with acyclovir (rat, in vivo): greater amounts of the parent drug in the urine than acyclovir itself

CCC(C)C(N)C(=O)OCCOCn1cnc2c(=O)[nH]c(N)nc21 (racemic) [DL-isoleucyl]
amounts of the parent drug in the urine compared with acyclovir (rats): greater amounts of the parent drug in the urine than acyclovir itself

CC(C)C(N)C(=O)OCCOCn1cnc2c(=O)nc(N)[nH]c21 (racemic) [D,L-valyl]
amounts of the parent drug in the urine compared with acyclovir (rat, in vivo): greater amounts of the parent drug in the urine than acyclovir itself

CC(N)C(=O)OCCOCn1cnc2c(=O)[nH]c(N)nc21 (racemic) [D,L-alanyl]
amounts of the parent drug in the urine compared with acyclovir (rat, in vivo): greater amounts of the parent drug in the urine than acyclovir itself

CC(C)[C@H](N)C(=O)OCCOCn1cnc2c(=O)[nH]c(N)nc21 [L-valyl ester of acyclovir]
amounts of the parent drug in the urine compared with acyclovir (rats): greater amounts of the parent drug in the urine than acyclovir itself | ranking as prodrug of acyclovir (rats): the best prodrug of the esters investigated

CCC(C)C(N)C(=O)OCCOCn1cnc2c(=O)[nH]c(N)nc21 (centres unmarked) [isoleucine ester of acyclovir]
absorption from the gut compared with other esters and acyclovir ([9]; oral administration, preferably in the L-form): large increase in absorption from the gut after oral administration

CC(C)[C@H](N)C(=O)OCCOCn1cnc2c(=O)nc(N)[nH]c21 [valine ester of acyclovir]
absorption from the gut compared with other esters and acyclovir ([9]; in vivo, po): large increase in absorption from the gut after oral administration

Nc1nc2c(ncn2COCCOC(=O)[C@@H]2CCCN2)c(=O)[nH]1 [L-prolyl ester]
amounts of the parent drug in the urine compared with acyclovir (rat, in vivo): greater amounts of the parent drug in the urine than acyclovir itself

Nc1ncc2ncn(COC(CO)CO)c2n1 [6-deoxy-ganciclovir]
absorption and plasma levels of the parent drugs ([4]; rat, in vivo, po): efficient absorption from the gastro-intestinal tract and high plasma levels of the parent drugs | conversion to parent drug [5]: readily converted in vivo by the action of enzymes

NCCC(=O)OCCOCn1cnc2c(=O)[nH]c(N)nc21 [hydrochloride salt of the β-alanyl ester]
activity against herpes simplex virus type 1 and type 2 compared with acyclovir [3]: almost as active as acyclovir itself
